The text below walks through data of patent publication US20060014677A1, “Method for maximizing efficacy and predicting and minimizing toxicity of calcineurin inhibitor compounds” (Isotechnika International Inc., priority 2004, published 2006).

The structures appear in SMILES notation. In brackets after ≈: the same amount, converted by molar mass.

In general, Cmax refers to the highest concentration seen after dosing.

One data set has as its system calcineurin. As to the kind of experiment: Calcineurin inhibition assay on whole blood lysates, PK-PD sigmoid Emax model (Study A, phase II). Conditions: FIG. 4A/4B; peak (C2) concentration vs % CNI. The format is in vivo, human.
For the next data set, the system named is psoriasis patients. The data set can be described thus: Psoriasis Area and Severity Index (PASI) vs trough concentration in psoriasis patients. The format is in vivo, human. Conditions: FIG. 2. The source says: While % CNI is used in FIG. 1 to illustrate drug efficacy, there are other ways to measure transplant drug efficacy or calcineurin inhibitor drug efficacy. For example, in animal models, graft survival in transplantation is an indication of immunosuppressive drug efficacy. However, graft survival is an experimental model that takes a long time to measure and is complicated in that grafts may not survive for reasons other than the effective concentration of immunosuppressive agents. For example, prolonged cold ischemic time, donor/recipient mismatch or surgical technique may affect outcome of a graft. In human transplant patients, episodes of rejection may be indicators of failure of a calcineurin inhibitor. Other markers may be patient survival, in the case of transplant. For Psoriasis, a decrease in Psoriasis Area and Severity Index (PASI) score is an indication of effective treatment of psoriasis. A 75% reduction in PASI score is commonly held as a successful therapy.
Using PASI score as another indicator of drug efficacy, FIG. 2 illustrates that as drug concentration increases, the PASI score, an indicator of psoriasis severity, decreases. […] EC50 is an indication of the potency of the drug. […] FIG. 2 illustrates the relationship between trough drug concentration (C0) and PASI score on day 42 of treatment where E equals effect, in this case measured by PASI score.

The nature of another data set: clinical. Conditions: human, in vivo.
Data set [1] relates to stable renal transplant patients. Conditions: human, in vivo, 12 week.
Method: (§1) At weeks 1, 6, and 12, serial whole blood samples were drawn and drug concentrations were determined. PK and PD were evaluated using standard non-compartmental analysis and a calcineurin inhibition assay. […] Whole blood lysates were evaluated for their ability to dephosphorylate a ^32P-labelled 19 amino acid peptide substrate in the presence of okadaic acid, a phosphatast type 1 and 2 inhibitor. Background phosphatase 2C activity (CsA and okadaic acid resistant activity) was determined and subtracted from each sample, with the assay performed in the presence and absence of excess added CsA. The remaining phosphatase activity was taken as calcineurin activity. Serum creatinine was measured from blood samples, as a measure of renal toxicity.
This discriminant analysis was performed using SPSS for Windows version 10.1 software available from SPSS Inc.
A measurement taken at 8 hours was used as peak concentration in the absence of a C2 measurement in this study. […] Cmin measurement could be a measurement taken at C0 or at C8, whichever measurement gave the lower measurement. […] Clinical diagnosis of renal toxicity may require an increase of, for example, 50% over baseline.

Method for calcineurin: At weeks 1, 6, and 12, serial whole blood samples were drawn and drug concentrations were determined. PK and PD were evaluated using standard non-compartmental analysis and a calcineurin inhibition assay. […] Whole blood lysates were evaluated for their ability to dephosphorylate a ^32P-labelled 19 amino acid peptide substrate in the presence of okadaic acid, a phosphatast type 1 and 2 inhibitor. Background phosphatase 2C activity (CsA and okadaic acid resistant activity) was determined and subtracted from each sample, with the assay performed in the presence and absence of excess added CsA. The remaining phosphatase activity was taken as calcineurin activity.
(§2) A direct PK-PD correlation was performed using a sigmoid Emax model.
AIC is the Akaike Information Criterion. It is a dimensionless “goodness of fit” parameter that is a modification of an ‘F-test.’ The lower the AIC number the better the fit. This relationship was constructed using concentrations from trough (C0) through hour 4 (C4).
Method for clinical: as §1, §2
A measurement taken at 8 hours was used as peak concentration in the absence of a C2 measurement in this study. […] Cmin measurement could be a measurement taken at C0 or at C8, whichever measurement gave the lower measurement.
Percent fluctuation (FLU) was calculated as shown in Formula (2): [formula]

For `C=C/C=C/C[C@@H](C)[C@@H](O)[C@H]1C(=O)N[C@@H](CC)C(=O)N(C)CC(=O)N(C)[C@@H](CC(C)C)C(=O)N[C@@H](C(C)C)C(=O)N(C)[C@@H](CC(C)C)C(=O)N[C@@H](C)C(=O)N[C@H](C)C(=O)N(C)[C@@H](CC(C)C)C(=O)N(C)[C@@H](CC(C)C)C(=O)N(C)[C@@H](C(C)C)C(=O)N1C` [ISA247], the EC50 in the data set with calcineurin was 161.8+54.5 ng/mL. Also, the “Emax, maximum possible mean PASI” value with psoriasis patients (trough (C0) concentration vs PASI on day 42) is given as 22.9±7 PAS1. Besides, the EC50 with psoriasis patients (Homo sapiens, 1008 h, read-out: EC50, trough concentration required to achieve a 50% reduction in PASI, trough (C0), day 42 of treatment) was 0.0135 ± 0.0081 µg/mL (≈ 0.0111 µM). Moreover, in the data set “clinical”, the “Cmax, mean” value was 159.59 ng/mL; the “t1/2, comparison between the two drugs” value was “similar”; the “time to maximum concentration (tmax), comparison between the two drugs” value is “similar”. For the same molecule, in the data set “clinical” (8 h), the “C8, mean” value stood at 54.327 ng/mL. The same molecule displayed a concentration at 8 h in “clinical” (C8, mean) of 37.3 ng/mL. This molecule showed a Cmax in the data set “clinical” (Cmax, mean) of 188 ng/mL. In data set [1], the “number of patients with normal renal function (actual group membership)” value was found to be 121 and the “number of patients with renal toxicity (actual group membership)” value came to 26.
